The results in this text go back to patent publication US9981909B2 (Janssen Pharmaceutica NV, priority 2008, dated 2018).

Structures can show the parent of a compound that is named as a salt.

The target in assay [1] is h5HT2B (Homo sapiens (Human), UniProt P41595). Briefly: h5HT2B binding.
Assay [2] addresses human SERT (Homo sapiens (Human), UniProt P31645). Description: human SERT binding assay with [3H]-citalopram on HEK-293 membranes. To be noted: read-out: hSERT binding Ki.
In assay [3] the target is rat 5-HT7 receptor (Rattus norvegicus (Rat), UniProt P32305). Briefly: r5-HT7 binding assay, competitive radioligand binding with [3H]5-CT. The method in brief:
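Membranes from HEK-293 cells recombinantly expressing rat 5-HT7 were used for competitive radioligand binding with [3H]5-CT, with radioactivity read-out and Ki values derived. In the functional cAMP immunoassay, stably transfected HEK-293 cells were pre-incubated with compound for 10 minutes, challenged with 100 nM 5-CT for 20 minutes, then lysed.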

Assay [4] addresses h5HT2C (Homo sapiens (Human), UniProt P28335). Description: h5HT2C binding.
Assay [5] concerns the target h5HT2A (Homo sapiens (Human), UniProt P28223). Description: h5HT2A binding.
The target of assay [6] is r5-HT7 receptor (Rattus norvegicus (Rat), UniProt P32305). Briefly: HitHunter cAMP assay, antagonist testing against 100 nM 5-CT. Type of assay: cell-based. The note with it: antagonist testing, 100 nM 5-CT challenge, HEK-293 r5-HT7; read-out: R5HT7 cAMP pKb (converted). The method in brief: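 Rat 5-HT7 binding: HEK-293 membrane fractions, [3H]5-CT displacement, radioactivity counted, Ki reported. Antagonist mode: intact r5-HT7 HEK-293 cells, test compound 10 min, then 5-CT 100 nM for 20 min, lysis, cAMP by competitive immunoassay.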
Chain of r5-HT7 receptor (P32305 1-435): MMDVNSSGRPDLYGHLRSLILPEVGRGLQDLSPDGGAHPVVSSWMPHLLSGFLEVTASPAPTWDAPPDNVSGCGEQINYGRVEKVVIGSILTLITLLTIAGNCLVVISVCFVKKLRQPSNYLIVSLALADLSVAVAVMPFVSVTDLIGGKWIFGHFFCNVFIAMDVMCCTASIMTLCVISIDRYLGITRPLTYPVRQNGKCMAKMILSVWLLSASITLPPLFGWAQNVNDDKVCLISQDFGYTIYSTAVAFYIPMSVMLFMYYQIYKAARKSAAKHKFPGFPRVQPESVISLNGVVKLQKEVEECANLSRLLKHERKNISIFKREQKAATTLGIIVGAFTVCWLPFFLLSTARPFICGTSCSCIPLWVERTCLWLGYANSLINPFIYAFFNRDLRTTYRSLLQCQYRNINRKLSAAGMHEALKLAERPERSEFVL

The mark [7] stands for this setting: rat 5-HT7 receptor, HEK-293 membranes.

Chain of human SERT (P31645 whole entry): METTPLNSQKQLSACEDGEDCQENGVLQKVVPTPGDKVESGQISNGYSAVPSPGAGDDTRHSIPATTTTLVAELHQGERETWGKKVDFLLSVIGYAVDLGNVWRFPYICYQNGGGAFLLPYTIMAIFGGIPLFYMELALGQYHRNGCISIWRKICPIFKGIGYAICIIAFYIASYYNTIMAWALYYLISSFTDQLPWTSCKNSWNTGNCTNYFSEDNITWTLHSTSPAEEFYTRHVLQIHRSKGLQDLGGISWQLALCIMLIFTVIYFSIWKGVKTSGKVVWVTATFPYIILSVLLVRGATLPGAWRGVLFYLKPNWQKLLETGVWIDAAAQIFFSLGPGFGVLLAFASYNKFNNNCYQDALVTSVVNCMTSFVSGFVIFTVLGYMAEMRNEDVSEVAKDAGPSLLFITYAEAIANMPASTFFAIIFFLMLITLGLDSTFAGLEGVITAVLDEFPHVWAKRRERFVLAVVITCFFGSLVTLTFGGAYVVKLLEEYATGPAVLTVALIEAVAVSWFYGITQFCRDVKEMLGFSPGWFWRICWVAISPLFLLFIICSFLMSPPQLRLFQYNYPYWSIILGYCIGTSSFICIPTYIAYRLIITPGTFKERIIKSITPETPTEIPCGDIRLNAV
Chain of h5HT2C (P28335 33-458): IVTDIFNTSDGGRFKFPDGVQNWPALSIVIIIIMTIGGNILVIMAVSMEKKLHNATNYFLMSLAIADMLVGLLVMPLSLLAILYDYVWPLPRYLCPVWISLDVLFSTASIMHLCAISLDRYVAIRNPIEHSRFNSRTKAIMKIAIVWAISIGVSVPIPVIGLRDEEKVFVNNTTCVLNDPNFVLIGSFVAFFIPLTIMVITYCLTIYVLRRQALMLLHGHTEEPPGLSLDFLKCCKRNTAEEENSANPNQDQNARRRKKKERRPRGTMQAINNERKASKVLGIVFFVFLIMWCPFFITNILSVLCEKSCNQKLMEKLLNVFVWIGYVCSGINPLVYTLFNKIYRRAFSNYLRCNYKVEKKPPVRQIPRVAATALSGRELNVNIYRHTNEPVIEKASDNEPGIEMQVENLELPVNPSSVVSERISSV
Chain of h5HT2B (P41595 whole entry): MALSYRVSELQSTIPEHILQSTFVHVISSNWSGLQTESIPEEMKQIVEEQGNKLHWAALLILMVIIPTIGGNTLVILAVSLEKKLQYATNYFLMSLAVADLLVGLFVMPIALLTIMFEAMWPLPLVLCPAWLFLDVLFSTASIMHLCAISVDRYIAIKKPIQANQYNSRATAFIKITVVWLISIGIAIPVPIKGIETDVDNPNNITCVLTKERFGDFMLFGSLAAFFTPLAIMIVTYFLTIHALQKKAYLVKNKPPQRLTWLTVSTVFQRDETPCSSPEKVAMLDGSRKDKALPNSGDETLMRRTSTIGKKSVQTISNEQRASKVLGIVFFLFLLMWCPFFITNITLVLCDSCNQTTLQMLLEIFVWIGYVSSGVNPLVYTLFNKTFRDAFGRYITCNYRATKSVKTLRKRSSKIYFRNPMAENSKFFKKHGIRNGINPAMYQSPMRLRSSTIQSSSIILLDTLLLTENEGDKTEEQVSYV
Chain of rat 5-HT7 receptor (P32305 1-435): as the sequence (P32305 1-435) above
Chain of h5HT2A (P28223 whole entry): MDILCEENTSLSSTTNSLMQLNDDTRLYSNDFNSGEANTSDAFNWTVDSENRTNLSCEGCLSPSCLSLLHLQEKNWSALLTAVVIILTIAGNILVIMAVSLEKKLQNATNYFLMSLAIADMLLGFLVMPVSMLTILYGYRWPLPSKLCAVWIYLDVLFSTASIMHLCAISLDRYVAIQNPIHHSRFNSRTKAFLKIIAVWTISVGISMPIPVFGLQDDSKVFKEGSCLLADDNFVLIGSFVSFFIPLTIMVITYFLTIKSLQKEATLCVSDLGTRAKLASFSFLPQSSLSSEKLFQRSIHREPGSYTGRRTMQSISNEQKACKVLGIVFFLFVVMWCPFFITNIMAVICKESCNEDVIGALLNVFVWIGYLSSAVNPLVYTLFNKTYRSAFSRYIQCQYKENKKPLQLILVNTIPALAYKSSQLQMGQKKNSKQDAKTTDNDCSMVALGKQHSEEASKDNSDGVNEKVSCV

One may read the Ki as the dissociation constant of the complex between target and ligand, obtained from inhibition or displacement. With `COc1cccc(CCOc2ccc(Cl)cc2OC2CNC2)c1` [Example 190, 3-[5-Chloro-2-[2-(3-methoxy-phenyl)-ethoxy]-phenoxy]-azetidine], the Ki in assay [1] was 69 nM; in assay [2], 211 nM; in assay [3] (setting [7]), 8 nM; in assay [4] it was 56 nM; in assay [5] it was 14 nM.
In the case of `Clc1ccc(O[C@@H]2CCNC2)c(OCc2ccccc2)c1` [Example 90, (R)-3-(2-Benzyloxy-4-chloro-phenoxy)-pyrrolidine], the Ki in assay [1] was found to be 83 nM; in assay [3] (setting [7]) it was 920 nM; in assay [4], 160 nM; in assay [5] it was 20 nM.
With `FC(F)(F)c1ccc2c(c1)C(Oc1ccc(Cl)cc1OC1CNC1)CC2` (stereo not shown) [Example 160, 3-[5-Chloro-2-(6-trifluoromethyl-indan-1-yloxy)-phenoxy]-azetidine], the Ki was 25 nM in assay [1]; 210 nM in assay [2]; 15 nM in assay [3] (setting [7]); 146 nM in assay [4]; 5 nM in assay [5]. The Kb in assay [6] was 5.01 nM.
Consider `Fc1cccc(CCOc2ccc(Cl)cc2OC2CNC2)c1` [Example 191, 3-[5-Chloro-2-[2-(3-fluoro-phenyl)-ethoxy]-phenoxy]-azetidine], for which the Ki in assay [1] is 11 nM; in assay [2] it was 7 nM; in assay [3] (setting [7]) it was 8 nM; in assay [4] it was 53 nM; in assay [5] it was 8 nM.
Consider `FC(F)(F)c1ccnc(COc2ccc(Cl)cc2OC2CNC2)c1` [Example 81, 2-[2-(Azetidin-3-yloxy)-4-chloro-phenoxymethyl]-4-trifluoromethyl-pyridine], for which the Ki in assay [1] was 367 nM; in assay [2], 1170 nM; in assay [3] (setting [7]), 97 nM; in assay [4], 590 nM; in assay [5] it was 76 nM.
Regarding `Cc1nc(COc2ccc(Cl)cc2OC2CNC2)cs1` [Example 29, 4-[2-(Azetidin-3-yloxy)-4-chloro-phenoxymethyl]-2-methyl-thiazole], the Ki in assay [1] turned out to be 529 nM; in assay [2], 27 nM; in assay [3] (setting [7]) it was 83 nM; in assay [4], 1110 nM; in assay [5], 225 nM. The Kb in assay [6] is 126 nM.
In the case of `CN1CC[C@@H](Oc2ccc(Cl)cc2OCc2ccccc2)C1` [Example 91, (R)-3-(2-Benzyloxy-4-chloro-phenoxy)-1-methyl-pyrrolidine], the Ki in assay [1] was found to be 50 nM; in assay [3] (setting [7]), 500 nM; in assay [4], 120 nM; in assay [5] it was 5 nM.
As for `Clc1ccc(OC2CCc3ccccc3C2)c(OC2CNC2)c1` (stereo not shown) [Example 164, 3-[5-Chloro-2-(1,2,3,4-tetrahydro-naphthalen-2-yloxy)-phenoxy]-azetidine], the Ki in assay [1] was determined as 30 nM; in assay [2], 8 nM; in assay [3] (setting [7]), 33 nM; in assay [4], 181 nM; in assay [5] it was 24 nM.
In the case of `Clc1cccc(COc2cc(Cl)ccc2O[C@H]2CCNC2)c1` [Example 94, (S)-3-[4-Chloro-2-(3-chloro-benzyloxy)-phenoxy]-pyrrolidine], the inhibition constant Ki was 250 nM in assay [1], over 2500 nM in assay [3] (setting [7]), 69 nM in assay [4] and 32 nM in assay [5].
Consider `FC(F)(F)c1ccc(OCc2ccccc2)c(OC2CNC2)c1` [Example 201, hydrochloride], for which the Ki was 184 nM in assay [1]; 56 nM in assay [2]; 31 nM in assay [3] (setting [7]); 498 nM in assay [4]; 67 nM in assay [5]. Besides, the Kb in assay [6] was 50.1 nM.
Consider `COc1ccc(CCOc2ccc(Cl)cc2OC2CNC2)cc1` [Example 194, 3-[5-Chloro-2-[2-(4-methoxy-phenyl)-ethoxy]-phenoxy]-azetidine], for which the Ki in assay [1] turned out to be 195 nM; in assay [2], 141 nM; in assay [3] (setting [7]) it was 4 nM; in assay [4] it was 81 nM; in assay [5] it was 4 nM.
Take `Cc1ccc2c(c1)C(Oc1ccc(Cl)cc1OC1CNC1)CC2` (racemic) [Example 158, (±)-3-[5-Chloro-2-(6-methyl-indan-1-yloxy)-phenoxy]-azetidine]: the Ki in assay [1] amounted to 36 nM; in assay [2] it was 67 nM; in assay [3] (setting [7]), 15 nM; in assay [4], 146 nM; in assay [5], 8 nM. Besides, the Kb in assay [6] was 10 nM.
With `COC(COc1ccc(Cl)cc1OC1CNC1)c1ccccc1` (stereo not shown) [Example 168, 3-[5-Chloro-2-(2-methoxy-2-phenyl-ethoxy)-phenoxy]-azetidine], the inhibitory constant (Ki) was 21 nM in assay [1], 130 nM in assay [3] (setting [7]), 48 nM in assay [4] and 8 nM in assay [5].
Turning to `FC(F)(COc1ccc(Cl)cc1OC1CNC1)c1ccccc1` [Example 184, 3-[5-Chloro-2-(2,2-difluoro-2-phenyl-ethoxy)-phenoxy]-azetidine], the Ki was determined as 12 nM in assay [1]; 124 nM in assay [2]; 23 nM in assay [3] (setting [7]); 38 nM in assay [4]; 5 nM in assay [5]. Further, the Kb in assay [6] is 50.1 nM.
As for `FC(F)(F)c1ccc(OCc2ccc(C(F)(F)F)o2)c(OC2CNC2)c1` [Example 199, 3-[5-Trifluoromethyl-2-(5-trifluoromethyl-furan-2-ylmethoxy)-phenoxy]-azetidine], the inhibition constant Ki was determined as 1220 nM in assay [1]; 128 nM in assay [2]; 18 nM in assay [3] (setting [7]); 526 nM in assay [4]; 103 nM in assay [5]. For the same molecule, in assay [6], the Kb was 39.8 nM.
As to `Clc1ccc(OC2CCc3ccc(Cl)cc32)c(OC2CNC2)c1` (racemic) [Example 159, (±)-3-[5-Chloro-2-(6-chloro-indan-1-yloxy)-phenoxy]-azetidine], the Ki was found to be 41 nM in assay [1]; 21 nM in assay [2]; 17 nM in assay [3] (setting [7]); 196 nM in assay [4]; 6 nM in assay [5]. Moreover, in assay [6], the Kb is 7.94 nM.
Consider `Clc1ccc(CCOc2ccc(Cl)cc2OC2CNC2)cc1` [Example 192, 3-[5-Chloro-2-[2-(4-chloro-phenyl)-ethoxy]-phenoxy]-azetidine], for which the Ki was 22 nM in assay [1]; 88 nM in assay [2]; 8 nM in assay [3] (setting [7]); 140 nM in assay [4]; 9 nM in assay [5].
For `Clc1ccc(C2(COc3ccc(Cl)cc3OC3CNC3)CCC2)cc1` [Example 188, 3-[5-Chloro-2-[1-(4-chloro-phenyl)-cyclobutylmethoxy]-phenoxy]-azetidine], in that order: 28 nM, 65 nM, 34 nM, 143 nM and 8 nM.
Consider `FC(F)(F)c1cccc(COc2ccc(Cl)cc2OC2CNC2)n1` [Example 79, 2-[2-(Azetidin-3-yloxy)-4-chloro-phenoxymethyl]-6-trifluoromethyl-pyridine], for which the inhibition constant Ki in assay [1] turned out to be 248 nM; in assay [2] it was 3 nM; in assay [3] (setting [7]) it was 26 nM; in assay [4], 290 nM; in assay [5], 69 nM. Besides, the Kb in assay [6] is 50.1 nM.
On to `Fc1ccc(CCOc2ccc(Cl)cc2OC2CNC2)cc1` [Example 193, 3-[5-Chloro-2-[2-(4-fluoro-phenyl)-ethoxy]-phenoxy]-azetidine], for which the Ki came out at 14 nM in assay [1]; 9 nM in assay [2]; 5 nM in assay [3] (setting [7]); 71 nM in assay [4]; 11 nM in assay [5].
With `CCN1CC(Oc2cc(Br)ccc2OCc2cccc(F)c2)C1` [Example 18, 3-[5-Bromo-2-(3-fluoro-benzyloxy)-phenoxy]-1-ethyl-azetidine], the Ki in assay [2] was found to be 435 nM; in assay [3] (setting [7]) it was 5 nM. Also, the Kb in assay [6] was 1.58 nM.
`CN1CC[C@@H](Oc2ccc(Cl)cc2OCc2cccc(Cl)c2)C1` [Example 93, (R)-3-[4-Chloro-2-(3-chloro-benzyloxy)-phenoxy]-1-methyl-pyrrolidine]: the Ki in assay [1] amounted to 13 nM; in assay [3] (setting [7]), 140 nM; in assay [4], 51 nM; in assay [5], 3 nM.
Take `O=C(c1ccc2ccccc2c1)c1ccc(Br)cc1OC1CNC1` [Example 287, [2-(Azetidin-3-yloxy)-4-bromo-phenyl]-naphthalen-2-yl-methanone]: the Ki in assay [2] is 14 nM; in assay [3] (rat 5-HT7, HEK-293 membranes), 15 nM. Further, the Kb in assay [6] was 63.1 nM.
`FC(F)(F)c1ccc2c(c1)C(Oc1ccc(Br)cc1OC1CNC1)CC2` (racemic) [Example 157, (±)-3-[5-Bromo-2-(6-trifluoromethyl-indan-1-yloxy)-phenoxy]-azetidine]: the inhibition constant Ki in assay [2] is 181 nM; in assay [3] (setting [7]) it was 10 nM. Also, the Kb in assay [6] was 5.01 nM.
With `Clc1cccc(COc2cc(Cl)ccc2O[C@@H]2CCNC2)c1` [Example 92, (R)-3-[4-Chloro-2-(3-chloro-benzyloxy)-phenoxy]-pyrrolidine], the Ki in assay [1] was 28 nM; in assay [3] (setting [7]), 260 nM; in assay [4] it was 110 nM; in assay [5], 14 nM.
